The text below walks through data of patent US10576062B2, “Carbamoyloxymethyl triazole cyclohexyl acids as LPA antagonists” (Bristol-Myers Squibb Company, priority 2016, dated 2020).

Usually IC50 stands for the concentration at which inhibition is half-maximal.

This assay deals with T1, human LPA1 (Homo sapiens, UniProt Q92633).
T1 construct: expressed in transfected cells; host or cells: Chinese hamster ovary (CHO) cells
As to the kind of experiment: LPA1 functional antagonist assay (LPA-induced calcium flux). The class given is cell-based. The note with it: read-out: hLPA1 IC50. Summed up:
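CHO cells overexpressing human LPA1, loaded with calcium dye 30 min at 37° C, were preincubated 20 min at room temperature with compound (0.08 nM–5 μM, 0.5% DMSO) in HBSS/20 mM HEPES/0.1% fatty acid-free BSA.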
(Calcium flux is commonly read through the fluorescence of an indicator in the cells.)

[1] abbreviates: CHO cells overexpressing human LPA1, inhibition of calcium flux induced by 10 nM LPA.

SMILES strings stand for the structures. Like-named read-outs stand apart in the source and are kept apart here.

T1 sequence (Q92633 whole entry): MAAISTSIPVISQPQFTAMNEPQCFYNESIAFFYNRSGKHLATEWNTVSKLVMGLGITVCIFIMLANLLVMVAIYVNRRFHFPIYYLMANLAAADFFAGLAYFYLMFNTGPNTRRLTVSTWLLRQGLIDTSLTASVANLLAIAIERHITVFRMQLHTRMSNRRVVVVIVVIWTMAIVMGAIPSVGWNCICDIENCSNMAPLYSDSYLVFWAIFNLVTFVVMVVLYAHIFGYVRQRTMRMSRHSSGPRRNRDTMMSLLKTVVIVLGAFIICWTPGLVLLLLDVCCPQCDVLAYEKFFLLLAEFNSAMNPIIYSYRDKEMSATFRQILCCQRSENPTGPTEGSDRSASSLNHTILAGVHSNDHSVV

For the compound `Cc1nc(-c2nnn(C)c2COC(=O)N(C)CC2COCCN2)ccc1O[C@H]1CCC[C@H](C(=O)O)C1` (stereo partly drawn) [Example 125, (1S,3S)-3-((2-methyl-6-(1-methyl-5-(((methyl(morpholin-3-ylmethyl)carbamoyl)oxy)methyl)-1H-1,2,3-triazol-4-yl)pyridin-3-yl)oxy)cyclohexane-1-carboxylic acid], the IC50 is 668 nM.
In the case of `Cc1nc(-c2nnn(C)c2COC(=O)N2C3CCC2CC3)ccc1O[C@H]1CCC[C@H](C(=O)O)C1` [Example 167, (1S,3S)-3-((6-(5-(((-7-azabicyclo[2.2.1]heptane-7-carbonyl)oxy)methyl)-1-methyl-1H-1,2,3-triazol-4-yl)-2-methylpyridin-3-yl)oxy)cyclohexane-1-carboxylic acid], the 50% inhibitory concentration (IC50) (human LPA1) was 317 nM.
Consider `CN(CC1CCC1)C(=O)OCc1c(-c2ccc(O[C@H]3CCC[C@H](C(=O)O)C3)c(CO)n2)nnn1C` [Example 265, (1S,3 S)-3-((6-(5-((((cyclobutylmethyl)(methyl)carbamoyl)oxy)methyl)-1-methyl-1H-1,2,3-triazol-4-yl)-2-(hydroxymethyl)pyridin-3-yl)oxy)cyclohexane-1-carboxylic Acid], for which, under setting [1], the half-maximal inhibitory concentration (IC50) was found to be 68 nM.
In the case of `Cc1cc(-c2nnn(C)c2COC(=O)N(C)Cc2ccccc2)ccc1O[C@H]1CCC[C@H](C(=O)O)C1` [Example 38, (1S,3S)-3-(4-(5-(((benzyl(methyl)carbamoyl)oxy)methyl)-1-methyl-1H-1,2,3-triazol-4-yl)-2-methylphenoxy)cyclohexane-1-carboxylic acid], the IC50 turned out to be 32 nM.
Turning to `Cc1nc(-c2nnn(C)c2COC(=O)N(C)CCCC(C)F)ccc1O[C@H]1CCC[C@H](C(=O)O)C1` (stereo partly drawn) [Example 256, (1S,3S)-3-((6-(5-((((4-fluoropentyl)(methyl)carbamoyl)oxy)methyl)-1-methyl-1H-1,2,3-triazol-4-yl)-2-methylpyridin-3-yl)oxy)cyclohexane-1-carboxylic acid], the IC50 under setting [1] was 17 nM.
Same read-out and setting: with `C[C@@H]1C[C@H]1CN(C)C(=O)OCc1c(-c2ccc(O[C@H]3CCC[C@H](C(=O)O)C3)cn2)nnn1C` [Example 251, (1S,3S)-3-((6-(1-methyl-5-(((methyl(((1R,2R)-2-methylcyclopropyl)methyl)carbamoyl)oxy)methyl)-1H-1,2,3-triazol-4-yl)pyridin-3-yl)oxy)cyclohexane-1-carboxylic acid] the figure was 27 nM.
As to `Cc1nc(-c2nnn(C)c2COC(=O)N2CCCC2C(F)(F)F)ccc1O[C@H]1CCC[C@H](C(=O)O)C1` (mixture of isomers) [Example 154, (1S,3S)-3-((2-methyl-6-(1-methyl-5-(((2-(trifluoromethyl)pyrrolidine-1-carbonyl)oxy)methyl)-1H-1,2,3-triazol-4-yl)pyridin-3-yl)oxy)cyclohexane-1-carboxylic acid], the IC50 turned out to be 321 nM.
Still for that read-out and setting: in the case of `CC(C1CC1)N(C)C(=O)OCc1c(-c2ccc(O[C@H]3CCC[C@H](C(=O)O)C3)c(F)c2)nnn1C` (mixture of isomers) [Example 45, (1S,3S)-3-(4-(5-((((1-cyclopropylethyl)(methyl)carbamoyl)oxy)methyl)-1-methyl-1H-1,2,3-triazol-4-yl)-2-fluorophenoxy)cyclohexane-1-carboxylic acid] it was 20 nM.
In the case of `CN(C(=O)OCc1c(-c2ccc(O[C@H]3CCC[C@H](C(=O)O)C3)c(C#N)n2)nnn1C)C1CCCC1` [Example 294, (1S,3S)-3-((2-cyano-6-(5-(((cyclopentyl(methyl)carbamoyl)oxy)methyl)-1-methyl-1H-1,2,3-triazol-4-yl)pyridin-3-yl)oxy)cyclohexane-1-carboxylic acid], under setting [1], the IC50 turned out to be 15 nM.
The same measure, in the same setting: in the case of `COCc1nc(-c2nnn(C)c2COC(=O)N(C)C2CCC2)ccc1O[C@H]1CCC[C@H](C(=O)O)C1` [Example 286, (1S,3S)-3-((6-(5-(((cyclobutyl(methyl)carbamoyl)oxy)methyl)-1-methyl-1H-1,2,3-triazol-4-yl)-2-(methoxymethyl)pyridin-3-yl)oxy)cyclohexane-1-carboxylic acid] it was 92 nM; in that of `CCc1nc(-c2nnn(C)c2COC(=O)N(C)CC2CC2)ccc1O[C@H]1CCC[C@H](C(=O)O)C1` [Example 194, (1S,3S)-3-((6-(5-((((cyclopropylmethyl)(methyl)carbamoyl)oxy)methyl)-1-methyl-1H-1,2,3-triazol-4-yl)-2-ethylpyridin-3-yl)oxy)cyclohexane-1-carboxylic acid], 14 nM; in that of `CN(C(=O)OCc1c(-c2ccc(O[C@H]3CCC[C@H](C(=O)O)C3)c(C#N)n2)nnn1C)C1CCC1` [Example 293, (1S,3S)-3-((2-cyano-6-(5-(((cyclobutyl(methyl)carbamoyl)oxy)methyl)-1-methyl-1H-1,2,3-triazol-4-yl)pyridin-3-yl)oxy)cyclohexane-1-carboxylic acid], 23 nM.
With `Cc1nc(-c2nnn(C)c2COC(=O)N(C)C(C)C2CCC2)ccc1O[C@H]1CCC[C@H](C(=O)O)C1` (mixture of isomers) [Example 20, (1S,3S)-3-((6-(5-((((1-cyclobutylethyl)(methyl)carbamoyl)oxy)methyl)-1-methyl-1H-1,2,3-triazol-4-yl)-2-methylpyridin-3-yl)oxy)cyclohexane-1-carboxylic acid], the IC50 stood at 28 nM.
As for `Cc1nc(-c2nnn(C)c2COC(=O)N(C)CC2(C)CC2)ccc1O[C@H]1CCC[C@H](C(=O)O)C1` [Example 263, (1S,3S)-3-((2-methyl-6-(1-methyl-5-(((methyl((1-methylcyclopropyl)methyl)carbamoyl)oxy)methyl)-1H-1,2,3-triazol-4-yl)pyridin-3-yl)oxy)cyclohexane-1-carboxylic acid], under setting [1], the IC50 turned out to be 76 nM.
For `Cc1nc(-c2nnn(C)c2COC(=O)N(C)C2CC(C)(C)C2)ccc1O[C@H]1CCC[C@@H](C(=O)O)C1` [Example 160, (1R,3S)-3-((6-(5-((((3,3-dimethylcyclobutyl)(methyl)carbamoyl)oxy)methyl)-1-methyl-1H-1,2,3-triazol-4-yl)-2-methylpyridin-3-yl)oxy)cyclohexane-1-carboxylic acid], the IC50 (human LPA1) amounted to 61 nM.
`Cc1nc(-c2nnn(C)c2COC(=O)N(C)C2CC(F)(F)C2)ccc1O[C@H]1CCC[C@@H](C(=O)O)C1` [Example 141, (1R,3S)-3-((6-(5-((((3,3-difluoro-cyclobutyl)(methyl)carbamoyl)oxy)methyl)-1-methyl-1H-1,2,3-triazol-4-yl)-2-methylpyridin-3-yl)oxy)cyclohexane-1-carboxylic acid]: the IC50 stood at 283 nM.
Turning to `Cc1nc(-c2nnn(C)c2COC(=O)N(C)CCC2CC2)cnc1O[C@H]1CCC[C@H](C(=O)O)C1` [Example 225, (1S,3S)-3-((5-(5-((((2-cyclopropylethyl)(methyl)carbamoyl)oxy)methyl)-1-methyl-1H-1,2,3-triazol-4-yl)-3-methylpyrazin-2-yl)oxy)cyclohexane-1-carboxylic acid], under setting [1], the IC50 was determined as 70 nM.
For the compound `Cc1nc(-c2nnn(C)c2COC(=O)N2CCC3(CC2)CC3)ccc1O[C@H]1CCC[C@H](C(=O)O)C1` [Example 171, (1S,3S)-3-((6-(5-(((6-azaspiro[2.5]octane-6-carbonyl)oxy)methyl)-1-methyl-1H-1,2,3-triazol-4-yl)-2-methylpyridin-3-yl)oxy)cyclohexane-1-carboxylic acid], under “human LPA1”, the half-inhibitory concentration (IC50) stood at 162 nM.
